According to patent US20260242410A1, “CRYSTALLINE FORMS OF A NEUROACTIVE STEROID” (Sage Therapeutics, Inc., priority 2022, published 2026):

Assay: Stability of the crystalline solvate form on drying, followed by XRPD
Type: physicochemical
Method: XRPD analyses were performed using a PANalytical X′pert pro with PIXcel detector (128 channels), scanning the samples between 3 and 35° 20. Solid Compound (1) was gently ground to release any agglomerates and loaded onto a multi-well plate with a Mylar polymer film to support the sample. The multi-well plate was then placed into the diffractometer and analyzed using Cu K radiation (a1 λ=1.54060 Å; a2=1.54443 Å; β=1.39225 Å; a1: a2 ratio=0.5) running in transmission mode (step size 0.0130° 20, step time 18.87s) using 40 kV/40 mA generator settings. Data were visualized and images generated using the HighScore Plus 4.7 desktop application (PANalytical, 2017). The 20 position was calibrated using alumina powder reference standard on a monthly basis.
100 mg of anhydrous Compound (1) was temperature cycled in 600 μL of acetone for 24 hours. Accordingly, 600 μL of acetone was added in 200 μL aliquots to a vile containing 100 mg of anhydrous Compound (1), to form a movable slurry. The vile was then capped, wrapped in parafilm and temperature cycled in an incubator shaker between ambient temperature and 40° C. with a 4 hour hold at each temperature. After 24 hours, the solid Compound (1) Acetone Solvate Form was isolated by centrifugation.
Approximately 200 mg of anhydrous Compound (1) was weighed into a scintillation vial and 1 mL of DMSO added to form a slurry. The slurry was then temperature cycled between ambient temperature and 40° C. in 4 hour cycles for 48 hours. After this time, the sample was dried in a 40° C. oven. On removal from the oven, the sample remained wet, so the sample was isolated by centrifuge filtration and then dried under vacuum at ambient conditions over night. After drying, the sample was reanalyzed by XRPD to be Compound (1) DMSO Solvate Form.
FIG. 4 depicts a non-normalized X-ray powder diffraction pattern for Compound (1) DMSO Solvate Form. The XRPD pattern was stable on drying under vacuum.

Row | SMILES | Crystallinity / XRPD pattern after gentle drying (72 hours gentle drying at ambient temperature (no vacuum), repreparation by temperature cycling) | Solid form obtained after complete drying (complete drying of the product) | Crystallinity / XRPD pattern after gentle drying (drying at 40° C. for 24 hours) | XRPD pattern stability on drying (drying under vacuum)
1 | COC[C@@]1(O)CC[C@H]2[C@@H](CC[C@@H]3[C@@H]2CC[C@]2(C)[C@@H](C(=O)Cn4nnc(C)n4)CC[C@@H]32)C1 [Compound (1) Acetone Solvate Form] | the XRPD pattern had not changed, there was a significant drop in crystallinity | produces crystalline anhydrous Compound (1) | significant loss in crystallinity, but negligible change in the XRPD pattern | 
2 | COC[C@@]1(O)CC[C@H]2[C@@H](CC[C@@H]3[C@@H]2CC[C@]2(C)[C@@H](C(=O)Cn4nnc(C)n4)CC[C@@H]32)C1 [Compound (1) DMSO Solvate Form] |  |  |  | stable
